# Laboratory results taken from patent publication US7375226B2, “Bi- and tricyclic substituted phenyl methanones” (Hoffman-La Roche Inc., priority 2004, dated 2008).
# Target: T1, mGlyT-1b (Mus musculus, UniProt P28571)
# T1 construct: host or cells: Flp-in-CHO
# T1 sequence (P28571 1-651 isoform P28571-2): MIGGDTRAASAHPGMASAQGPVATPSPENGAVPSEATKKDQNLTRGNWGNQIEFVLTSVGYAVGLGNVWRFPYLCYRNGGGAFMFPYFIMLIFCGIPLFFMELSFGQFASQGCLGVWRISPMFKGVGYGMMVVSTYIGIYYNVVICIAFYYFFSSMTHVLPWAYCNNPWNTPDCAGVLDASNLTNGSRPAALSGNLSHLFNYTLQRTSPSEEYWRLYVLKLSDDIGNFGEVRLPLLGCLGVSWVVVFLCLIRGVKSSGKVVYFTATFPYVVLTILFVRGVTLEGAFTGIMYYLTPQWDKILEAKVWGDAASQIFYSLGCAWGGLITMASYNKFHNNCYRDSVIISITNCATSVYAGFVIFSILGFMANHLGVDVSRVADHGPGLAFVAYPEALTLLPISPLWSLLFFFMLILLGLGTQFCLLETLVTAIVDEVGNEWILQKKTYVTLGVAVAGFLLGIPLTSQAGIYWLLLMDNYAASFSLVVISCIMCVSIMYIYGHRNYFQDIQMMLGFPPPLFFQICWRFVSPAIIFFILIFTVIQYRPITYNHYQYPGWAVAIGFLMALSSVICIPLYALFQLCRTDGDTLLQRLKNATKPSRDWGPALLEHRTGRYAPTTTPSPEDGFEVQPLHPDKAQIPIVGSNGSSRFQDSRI
# Experiment: Glycine uptake inhibition assay (mGlyT-1b), [3H]-glycine uptake in Flp-in-CHO cells
# Format: cell-based
# Conditions: Flp-in-CHO cells stably transfected with mGlyT1b cDNA; [3H]-glycine 60 nM and 25 μM non-radioactive glycine; read-out: IC50 (μM) at GlyT-1
# Protocol: • DMEM complete medium: Nutrient mixture F-12 (Gibco Life-technologies), fetal bovine serum (FBS) 5%, (Gibco life technologies), Penicillin/Streptomycin 1% (Gibco life technologies), Hygromycin 0.6 mg/ml (Gibco life technologies), Glutamine 1 mM Gibco life technologies). • Uptake buffer (UB): 150 mM NaCl, 10 mM Hepes-Tris, pH 7.4, 1 mM CaCl2, 2.5 mM KCl, 2.5 mM MgSO4, 10 mM (+) D-glucose. • Flp-in™-CHO (Invitrogen Cat n° R758-07)cells stably transfected with mGlyT1b cDNA. • Glycine uptake inhibition assay (mGlyT-1b)
# On day 1 mammalian cells, (Flp-in™-CHO), transfected with mGlyT-1b cDNA, were plated at the density of 40,000 cells/well in complete F-12 medium, without hygromycin in 96-well culture plates. On day 2, the medium was aspirated and the cells were washed twice with uptake buffer (UB). The cells were then incubated for 20 min at 22° C. with either (i) no potential competitor, (ii) 10 mM non-radioactive glycine, (iii) a concentration of a potential inhibitor. A range of concentration of the potential inhibitor was used to generate data for calculating the concentration of inhibitor resulting in 50% of the effect (e.g. IC50, the concentration of the competitor inhibiting glycine uptake of 50%). A solution was then immediately added containing [^3H]-glycine 60 nM (11-16 Ci/mmol) and 25 μM non-radioactive glycine. The plates were incubated with gentle shaking and the reaction was stopped by aspiration of the mixture and washing (three times) with ice-cold UB. The cells were lysed with scintillation liquid, shaken 3 hours and the radioactivity in the cells was counted using a scintillation counter.
row,Compound,IC50 [µM]
1,"CC(C)Oc1ccc(S(C)(=O)=O)cc1C(=O)N1CCN2c3ccc(OC(F)(F)F)cc3CC2C1 (racemic) [Example 14, Rac-(2-Isopropoxy-5-methanesulfonyl-phenyl)-(8-trifluoromethoxy-3,4,10,10a-tetrahydro-1H-pyrazino[1,2-a]indol-2-yl)-methanone]",0.154
2,"CC(C)Oc1ccc(S(C)(=O)=O)cc1C(=O)N1CCc2c(sc3ccc(Cl)cc23)C1 [Example 1, (6-Chloro-3,4-dihydro-1H-benzo[4,5]thieno[2,3-c]pyridin-2-yl)-(2-isopropoxy-5-methanesulfonyl-phenyl)-methanone]",0.019
3,"CS(=O)(=O)c1ccc(N2CCOCC2)c(C(=O)N2CCc3c(sc4ccc(Cl)cc34)C2)c1 [Example 2, (6-Chloro-3,4-dihydro-1H-benzo[4,5]thieno[2,3-c]pyridin-2-yl)-(5-methanesulfonyl-2-morpholin-4-yl-phenyl)-methanone]",0.187
4,"CC(C)COc1ccc(S(C)(=O)=O)cc1C(=O)N1CCc2nc(-c3cccs3)sc2C1 [Example 5, (2-Isobutoxy-5-methanesulfonyl-phenyl)-(2-thiophen-2-yl-6,7-dihydro-4H-thiazolo[5,4-c]pyridin-5-yl)-methanone]",0.098
5,"CC(C)Oc1ccc(S(C)(=O)=O)cc1C(=O)N1CCc2nc(-c3cccs3)sc2C1 [Example 6, (2-Isopropoxy-5-methanesulfonyl-phenyl)-(2-thiophen-2-yl-6,7-dihydro-4H!-thiazolo[5,4-c]pyridin-5-yl)-methanone]",0.407
6,"CC(C)Oc1ccc(S(C)(=O)=O)cc1C(=O)N1CCn2c(cc3ccc(Cl)cc32)C1 [Example 9, (7-Chloro-3,4-dihydro-1H-pyrazino[1,2-a]indol-2-yl)-(2-isopropoxy-5-methanesulfonyl-phenyl)-methanone]",0.134
7,"CC(C)Oc1ccc(S(C)(=O)=O)cc1C(=O)N1CCn2c(cc3cc(OC(F)(F)F)ccc32)C1 [Example 11, (2-Isopropoxy-5-methanesulfonyl-phenyl)-(8-trifluoromethoxy-3,4-dihydro-1H-pyrazino[1,2-a]indol-2-yl)-methanone]",0.088
8,"CS(=O)(=O)c1ccc(OC2CCCC2)c(C(=O)N2CCn3c(nc4ccccc43)C2)c1 [Example 15, (2-Cyclopentyloxy-5-methanesulfonyl-phenyl)-(3,4-dihydro-1H-benzo[4,5]imidazo[1,2-a]pyrazin-2-yl)-methanone]",0.367
9,"CC(C)Oc1ccc(C#N)cc1C(=O)N1CCc2c(sc3ccc(Cl)cc23)C1 [Example 19, 3-(6-Chloro-3,4-dihydro-1H-benzo[4,5]thieno[2,3-c]pyridine-2-carbonyl)-4-isopropoxy-benzonitrile]",0.339
10,"CS(=O)(=O)c1ccc(OCC2CC2)c(C(=O)N2CCc3c(sc4ccc(Cl)cc34)C2)c1 [Example 20, (6-Chloro-3,4-dihydro-1H-benzo[4,5]thieno[2,3-c]pyridin-2-yl)-(2-cyclopropylmethoxy-5-methanesulfonyl-phenyl)-methanone]",0.026
11,"C[C@H](Oc1ccc(S(C)(=O)=O)cc1C(=O)N1CCc2c(sc3ccc(Cl)cc23)C1)C(F)(F)F [Example 22, (6-Chloro-3,4-dihydro-1H-benzo[4,5]thieno[2,3-c]pyridin-2-yl)-[5-methanesulfonyl-2-((S)-2,2,2-trifluoro-1-methyl-ethoxy)-phenyl]-methanone]",0.023
12,"CC(C)COc1ccc(S(C)(=O)=O)cc1C(=O)N1CCc2nc(-c3ccc(C(F)(F)F)cc3)sc2C1 [Example 23, (2-Isobutoxy-5-methanesulfonyl-phenyl)-[2-(4-trifluoromethyl-phenyl)-6,7-dihydro-4H-thiazolo[5,4-c]pyridin-5-yl]-methanone]",0.341
